Test results from US10807959B2, “WDR5-MLL1 inhibitors and modulators” (Vanderbilt University, priority 2018, dated 2020).

biological target: WDR5 (Homo sapiens (Human), UniProt P61964); test: TR-FRET binding assay, displacement of 10mer-Thr-FAM probe from His-tagged WDR5; conditions: Inhibition of WDR5 by TR-FRET assay
Procedure: The LanthaScreenTM Elite Tb-anti-HIS Antibody from ThermoFisher Scientific was used for this purpose. […] The ratio of the 520 and 495 signals are then utilized to generate a dose-response curve to calculate an IC50 value. […] WDR[…] tag protein is used at 2 nM.

Row | Structure (SMILES) | Ki
1 | Cc1ncc(CNC(=O)c2cc(CNC3=NCCN3)cc(-c3ccc(F)nc3C)c2)cn1 [Example 37, 3-(((4,5-dihydro-1H-imidazol-2-yl)amino)methyl)-5-(6-fluoro-2-methylpyridin-3-yl)-N-((2-methylpyrimidin-5-yl)methyl)benzamide] | 2.1 nM
2 | Cc1cnc(F)c(-c2cc(CNC3=NCCN3)cc(C(=O)NCc3cc(Cl)ccn3)c2)c1 [Example 38, N-((4-chloropyridin-2-yl)methyl)-3-(((4,5-dihydro-1H-imidazol-2-yl)amino)methyl)-5-(2-fluoro-5-methylpyridin-3-yl)benzamide] | 0.26 nM
3 | Cc1ccnc(C(NC(=O)c2cc(CNC3=NCCN3)cc(-c3cc(C)cnc3F)c2)C2CC2)c1 (stereo not shown) [Example 39, N-(cyclopropyl(4-methylpyridin-2-yl)methyl)-3-(((4,5-dihydro-1H-imidazol-2-yl)amino)methyl)-5-(2-fluoro-5-methylpyridin-3-yl)benzamide] | < 0.1 nM
4 | Cc1cnc(F)c(-c2cc(CNC3=NCCN3)cc(C(=O)N(C)C)c2)c1 [Example 40, 3-(((4,5-dihydro-1H-imidazol-2-yl)amino)methyl)-5-(2-fluoro-5-methylpyridin-3-yl)-N,N-dimethylbenzamide] | 64 nM
5 | Cc1cnc(F)c(-c2cc(CNC3=NCCN3)cc(C(=O)NCc3ccc(Cl)c(C)c3)c2)c1 [Example 42, N-(4-chloro-3-methylbenzyl)-3-(((4,5-dihydro-1H-imidazol-2-yl)amino)methyl)-5-(2-fluoro-5-methylpyridin-3-yl)benzamide] | < 0.1 nM
6 | COc1cc(OC)cc(C(C)NC(=O)c2cc(CNC3=NC(=O)CN3C)cc(-c3ccc(F)nc3C)c2)c1 (stereo not shown) [Example 44, N-(1-(3,5-dimethoxyphenyl)ethyl)-3-(6-fluoro-2-methylpyridin-3-yl)-5-(((1-methyl-4-oxo-4,5-dihydro-1H-imidazol-2-yl)amino)methyl)benzamide] | 17 nM
7 | COc1ccnc(CNC(=O)c2cc(CNC3=NCCN3)cc(-c3cc(C(C)C)ccc3OC)c2)c1 [Example 45, 5-(((4,5-dihydro-1H-imidazol-2-yl)amino)methyl)-5′-isopropyl-2′-methoxy-N-((4-methoxypyridin-2-yl)methyl)-[1,1′-biphenyl]-3-carboxamide] | 1.01 nM
8 | COc1ccnc(CNC(=O)c2cc(CNC3=NCCN3)cc(-c3cc(C(F)(F)F)cnc3OC)c2)c1 [Example 46, 3-(((4,5-dihydro-1H-imidazol-2-yl)amino)methyl)-5-(2-methoxy-5-(trifluoromethyl)pyridin-3-yl)-N-((4-methoxypyridin-2-yl)methyl)benzamide] | 0.1 nM
9 | COc1ccnc(CNC(=O)c2cc(CNC3=NCCN3)cc(-c3ccc(F)cc3C(F)(F)F)c2)c1 [Example 47, 5-(((4,5-dihydro-1H-imidazol-2-yl)amino)methyl)-4′-fluoro-N-((4-methoxypyridin-2-yl)methyl)-2′-(trifluoromethyl)-[1,1′-biphenyl]-3-carboxamide] | < 0.1 nM
10 | COc1ccnc(CNC(=O)c2cc(CNC3=NCCN3)cc(-c3cc(F)cnc3OC)c2)c1 [Example 48, 3-(((4,5-dihydro-1H-imidazol-2-yl)amino)methyl)-5-(5-fluoro-2-methoxypyridin-3-yl)-N-((4-methoxypyridin-2-yl)methyl)benzamide] | 0.63 nM
11 | COc1ccnc(CNC(=O)c2cc(CNC3=NCCN3)cc(-c3ccc(F)cc3OC)c2)c1 [Example 49, 5-(((4,5-Dihydro-1H-imidazol-2-yl)amino)methyl)-4′-fluoro-2′-methoxy-N-((4-methoxypyridin-2-yl)methyl)-[1,1′-biphenyl]-3-carboxamide] | 0.3 nM
12 | COc1ccnc(CNC(=O)c2cc(CNC3=NCCN3)cc(-c3cc(C)c(F)cc3OC)c2)c1 [Example 50, 5-(((4,5-Dihydro-1H-imidazol-2-yl)amino)methyl)-4′-fluoro-2′-methoxy-N-((4-methoxypyridin-2-yl)methyl)-5′-methyl-[1,1′-biphenyl]-3-carboxamide] | < 0.1 nM
13 | COc1ccnc(CNC(=O)c2cc(CNC3=NCCN3)cc(-c3cc(C)c(F)cc3C)c2)c1 [Example 51, 5-(((4,5-Dihydro-1H-imidazol-2-yl)amino)methyl)-4′-fluoro-N-((4-methoxypyridin-2-yl)methyl)-2′,5′-dimethyl-[1,1′-biphenyl]-3-carboxamide] | < 0.1 nM
14 | COc1cc(CNC(=O)c2cc(CNC3=NCCC3)cc(-c3cccn3C)c2)cc(OC)c1 [Example 58, 3-(((3,4-Dihydro-2H-pyrrol-5-yl)amino)methyl)-N-(3,5-dimethoxybenzyl)-5-(1-methyl-1H-pyrrol-2-yl)benzamide] | 5.8 nM
15 | COc1cc(CNC(=O)c2cc(CNC3=NCCC3)cc(-c3ccncc3C)c2)cc(OC)c1 [Example 61, 3-(((3,4-Dihydro-2H-pyrrol-5-yl)amino)methyl)-N-(3,5-dimethoxybenzyl)-5-(3-methylpyridin-4-yl)benzamide] | 1.8 nM
16 | COc1cc(CNC(=O)c2cc(CNC3=NCCC3)cc(-c3cc(C)c(F)cc3C)c2)cc(OC)c1 [Example 62, 5-(((3,4-Dihydro-2H-pyrrol-5-yl)amino)methyl)-N-(3,5-dimethoxybenzyl)-4′-fluoro-2′,5′-dimethyl-[1,1′-biphenyl]-3-carboxamide] | 0.21 nM

Row | Structure (SMILES) | Ki
17 | Cc1cc(CNC(=O)c2cc(CNC3=NCCC3)cc(-c3ccc(F)c(CO)c3)c2)ccc1Cl [Example 65, N-(4-chloro-3-methylbenzyl)-5-(((3,4-dihydro-2H-pyrrol-5-yl)amino)methyl)-4′-fluoro-3′-(hydroxymethyl)-[1,1′-biphenyl]-3-carboxamide] | 4.3 nM
18 | Cc1cc(-c2cc(CNC3=NCCC3)cc(C(=O)NCc3ccc(Cl)c(C)c3)c2)c(C)cc1F [Example 66, N-(4-Chloro-3-methylbenzyl)-5-(((3,4-dihydro-2H-pyrrol-5-yl)amino)methyl)-4′-fluoro-2′,5′-dimethyl-[1,1′-biphenyl]-3-carboxamide] | 0.38 nM
19 | Cc1nc(F)ccc1-c1cc(CNC2=NCCN2)cc(C(=O)NCc2ccc(Cl)c(F)c2)n1 [Example 73, N-(4-Chloro-3-fluorobenzyl)-4-(((4,5-dihydro-1H-imidazol-2-yl)amino)methyl)-6′-fluoro-2′-methyl-[2,3′-bipyridine]-6-carboxamide] | 0.43 nM
20 | COc1cc(OC)cc(C(C)NC(=O)c2cc(CNC3=NCCN3)cc(-c3ccc(F)nc3C)n2)c1 (stereo not shown) [Example 75, 4-(((4,5-Dihydro-1H-imidazol-2-yl)amino)methyl)-N-(1-(3,5-dimethoxyphenyl)ethyl)-6′-fluoro-2′-methyl-[2,3′-bipyridine]-6-carboxamide] | 0.8 nM
21 | Cc1cnc(CNC(=O)c2cc(CNC3=NCCN3)cc(-c3ccc(F)nc3C)n2)cn1 [Example 76, 4-(((4,5-Dihydro-1H-imidazol-2-yl)amino)methyl)-6′-fluoro-2′-methyl-N-((5-methylpyrazin-2-yl)methyl)-[2,3′-bipyridine]-6-carboxamide] | 32 nM
22 | Cc1cnc(CNC(=O)c2cc(CNC3=NCCN3)cc(-c3ccc(F)nc3C)n2)nc1 [Example 77, 4-(((4,5-Dihydro-1H-imidazol-2-yl)amino)methyl)-6′-fluoro-2′-methyl-N-((5-methylpyrimidin-2-yl)methyl)-[2,3′-bipyridine]-6-carboxamide] | 33 nM
23 | COc1cc(CNC(=O)c2cc(CNC3=NCCN3)cc(-c3ccc(F)nc3C)n2)cc(OC)c1 [Example 78, 4-(((4,5-Dihydro-1H-imidazol-2-yl)amino)methyl)-N-(3,5-dimethoxybenzyl)-6′-fluoro-2′-methyl-[2,3′-bipyridine]-6-carboxamide] | 0.72 nM
24 | COc1cc(CNC(=O)c2cc(CNC3=NCCN3)cc(-c3ccc(F)nc3C)n2)ccn1 [Example 79, 4-(((4,5-Dihydro-1H-imidazol-2-yl)amino)methyl)-6′-fluoro-N-((2-methoxypyridin-4-yl)methyl)-2′-methyl-[2,3′-bipyridine]-6-carboxamide] | 5.74 nM
25 | Cc1ncc(CNC(=O)c2cc(CNC3=NCCN3)cc(-c3ccc(F)nc3C)n2)cn1 [Example 80, 4-(((4,5-Dihydro-1H-imidazol-2-yl)amino)methyl)-6′-fluoro-2′-methyl-N-((2-methylpyrimidin-5-yl)methyl)-[2,3′-bipyridine]-6-carboxamide] | 22 nM
26 | Cc1ccncc1-c1cc(CNC2=NCCN2)cc(C(=O)NCc2ccc(Cl)c(Cl)c2)n1 [Example 81, N-(3,4-Dichlorobenzyl)-4-(((4,5-dihydro-1H-imidazol-2-yl)amino)methyl)-4′-methyl-[2,3′-bipyridine]-6-carboxamide] | 0.24 nM
27 | Cc1cc(-c2cc(CNC3=NCCN3)cc(C(=O)NCc3ccc(Cl)c(Cl)c3)n2)ccn1 [Example 82, N-(3,4-Dichlorobenzyl)-4-(((4,5-dihydro-1H-imidazol-2-yl)amino)methyl)-2′-methyl-[2,4′-bipyridine]-6-carboxamide] | 0.46 nM
28 | COc1ncc(C)cc1-c1cc(CNC2=NCCN2)cc(C(=O)NCc2ccc(Cl)c(Cl)c2)n1 [Example 83, N-(3,4-Dichlorobenzyl)-4-(((4,5-dihydro-1H-imidazol-2-yl)amino)methyl)-2′-methoxy-5′-methyl-[2,3′-bipyridine]-6-carboxamide] | 0.31 nM
29 | Cc1cnccc1-c1cc(CNC2=NCCN2)cc(C(=O)NCc2ccc(Cl)c(Cl)c2)n1 [Example 84, N-(3,4-Dichlorobenzyl)-4-(((4,5-dihydro-1H-imidazol-2-yl)amino)methyl)-3′-methyl-[2,4′-bipyridine]-6-carboxamide] | 0.15 nM
30 | COc1ncc(Cl)cc1-c1cc(CNC2=NCCN2)cc(C(=O)NCc2ccc(Cl)c(Cl)c2)n1 [Example 86, 5′-Chloro-N-(3,4-dichlorobenzyl)-4-(((4,5-dihydro-1H-imidazol-2-yl)amino)methyl)-2′-methoxy-[2,3′-bipyridine]-6-carboxamide] | < 0.1 nM
31 | CCOc1ncc(C)cc1-c1cc(CNC2=NCCN2)cc(C(=O)NCc2ccc(Cl)c(Cl)c2)n1 [Example 88, N-(3,4-dichlorobenzyl)-4-(((4,5-dihydro-1H-imidazol-2-yl)amino)methyl)-2′-ethoxy-5′-methyl-[2,3′-bipyridine]-6-carboxamide] | 0.12 nM
